Laboratory results reported in ChEMBL document CHEMBL1799924, “Synthesis and activities of naphthalimide azoles as a new type of antibacterial and antifungal agents” (2011).
In brackets after ≈: the same amount, converted by molar mass.

Assays:
Candida = test: Antifungal activity against Candida mycoderma by microbroth dilution method; type: functional
Pseudomonas aeruginosa = test: Antibacterial activity against Pseudomonas aeruginosa by microbroth dilution method; type: functional
Staphylococcus aureus [1] = test: Antibacterial activity against Staphylococcus aureus ATCC 25923 by microbroth dilution method; type: functional
Salmonella typhi = test: Antibacterial activity against Bacillus typhi by microbroth dilution method; type: functional, Salmonella enterica subsp. enterica serovar Typhi; details: Salmonella enterica
Bacillus subtilis = test: Antibacterial activity against Bacillus subtilis ATCC 6633 by microbroth dilution method; type: functional
Micrococcus luteus = test: Antibacterial activity against Micrococcus luteus by microbroth dilution method; type: functional
Escherichia coli = test: Antibacterial activity against Escherichia coli JM 109 by microbroth dilution method; type: functional
Staphylococcus aureus [2] = test: Antibacterial activity against methicillin-resistant Staphylococcus aureus N 315 by microbroth dilution method; type: functional
Bacillus = test: Antibacterial activity against Bacillus proteus by microbroth dilution method; type: functional
Candida albicans = test: Antifungal activity against Candida albicans ATCC 76615 by microbroth dilution method; type: functional

| Compound | MIC (Candida) [µg/mL] | MIC (Pseudomonas aeruginosa) [µg/mL] | MIC (Staphylococcus aureus [1]) [µg/mL] | MIC (Salmonella typhi) [µg/mL] | MIC (Bacillus subtilis) [µg/mL] | MIC (Micrococcus luteus) [µg/mL] | MIC (Escherichia coli) [µg/mL] | MIC (Staphylococcus aureus [2]) [µg/mL] | MIC (Bacillus) [µg/mL] | MIC (Candida albicans) [µg/mL] |
| --- | --- | --- | --- | --- | --- | --- | --- | --- | --- | --- |
| O=C1c2cccc3c(Br)ccc(c23)C(=O)N1CCCn1cncn1 | 256 (≈ 665 µM) | 256 (≈ 665 µM) | > 512 | > 512 | 256 (≈ 665 µM) | > 512 | > 512 | > 512 | 256 (≈ 665 µM) | 256 (≈ 665 µM) |
| O=C1c2cccc3c(Br)ccc(c23)C(=O)N1CCCCn1cncn1 | > 512 | 256 (≈ 641 µM) | > 512 | > 512 | > 512 | > 512 | > 512 | > 512 | 256 (≈ 641 µM) | > 512 |
| O=C1c2cccc3c(Br)ccc(c23)C(=O)N1CCCCCn1cncn1 | > 512 | 256 (≈ 619 µM) | > 512 | > 512 | > 512 | > 512 | > 512 | > 512 | > 512 | > 512 |
| O=C1c2cccc3c(Br)ccc(c23)C(=O)N1CCCn1c[n+](Cc2ccc(F)cc2F)cn1.[Br-] | 4 | 1 | 16 | 4 | 4 | 8 | 4 | 4 | 8 | 8 |
| O=C1c2cccc3c(Br)ccc(c23)C(=O)N1CCCn1c[n+](Cc2ccc(Cl)cc2Cl)cn1.[Br-] | 8 | 4 | 16 | 16 | 8 | 8 | 4 | 16 | 4 | 8 |
| O=C1c2cccc3c(Br)ccc(c23)C(=O)N1CCCn1c[n+](Cc2ccc(Cl)c(Cl)c2)cn1.[Br-] | 16 | 16 | 16 | 16 | 32 | 16 | 16 | 16 | 32 | 16 |
| O=C1c2cccc3c(Br)ccc(c23)C(=O)N1CCCn1c[n+](Cc2ccccc2Cl)cn1.[Br-] | 32 | 16 | 16 | 32 | 32 | 16 | 16 | 16 | 32 | 8 |
| O=C1c2cccc3c(Br)ccc(c23)C(=O)N1CCCn1c[n+](Cc2ccc(Cl)cc2)cn1.[Br-] | 16 | 8 | 32 | 16 | 16 | 8 | 8 | 8 | 16 | 16 |
| O=C1c2cccc3c(Br)ccc(c23)C(=O)N1CCCn1c[n+](Cc2ccc([N+](=O)[O-])cc2)cn1.[Br-] | 16 | 32 | 32 | 32 | 32 | 32 | 16 | 16 | 16 | 32 |
| O=C1c2cccc3c(Br)ccc(c23)C(=O)N1CCCCn1c[n+](Cc2ccc(F)cc2F)cn1.[Br-] | 32 | 2 | 16 | 8 | 16 | 16 | 8 | 16 | 16 | 16 |
| O=C1c2cccc3c(Br)ccc(c23)C(=O)N1CCCCCn1c[n+](Cc2ccc(F)cc2F)cn1.[Br-] | 16 | 2 | 32 | 16 | 32 | 16 | 8 | 16 | 32 | 16 |
| O=C1c2cccc3c(Br)ccc(c23)C(=O)N1CCCn1ccnc1 | 64 (≈ 167 µM) | 32 (≈ 83.3 µM) | 16 (≈ 41.6 µM) | 16 (≈ 41.6 µM) | 16 (≈ 41.6 µM) | 16 (≈ 41.6 µM) | 16 (≈ 41.6 µM) | 16 (≈ 41.6 µM) | 16 (≈ 41.6 µM) | 64 (≈ 167 µM) |
| O=C1c2cccc3c(Br)ccc(c23)C(=O)N1CCCCn1ccnc1 | 32 (≈ 80.3 µM) | 16 (≈ 40.2 µM) | 16 (≈ 40.2 µM) | 16 (≈ 40.2 µM) | 32 (≈ 80.3 µM) | 16 (≈ 40.2 µM) | 8 (≈ 20.1 µM) | 16 (≈ 40.2 µM) | 16 (≈ 40.2 µM) | 64 (≈ 161 µM) |
| O=C1c2cccc3c(Br)ccc(c23)C(=O)N1CCCCCn1ccnc1 | 64 (≈ 155 µM) | 64 (≈ 155 µM) | 64 (≈ 155 µM) | 128 (≈ 310 µM) | 64 (≈ 155 µM) | 64 (≈ 155 µM) | 32 (≈ 77.6 µM) | 128 (≈ 310 µM) | 32 (≈ 77.6 µM) | 128 (≈ 310 µM) |
| O=C1c2cccc3c(Br)ccc(c23)C(=O)N1CCCCCCn1ccnc1 | 32 (≈ 75.1 µM) | 128 (≈ 300 µM) | 64 (≈ 150 µM) | 32 (≈ 75.1 µM) | 16 (≈ 37.5 µM) | 128 (≈ 300 µM) | 64 (≈ 150 µM) | 64 (≈ 150 µM) | 16 (≈ 37.5 µM) | 32 (≈ 75.1 µM) |
| O=C1c2cccc3c(Br)ccc(c23)C(=O)N1CCCn1cc[n+](Cc2ccc(F)cc2F)c1.[Br-] | 32 | 8 | 4 | 8 | 8 | 8 | 8 | 4 | 8 | 32 |
| O=C1c2cccc3c(Br)ccc(c23)C(=O)N1CCCCn1cc[n+](Cc2ccc(F)cc2F)c1.[Br-] | 16 | 16 | 8 | 8 | 8 | 8 | 8 | 2 | 16 | 32 |
| O=C1c2cccc3c(Br)ccc(c23)C(=O)N1CCCCCn1cc[n+](Cc2ccc(F)cc2F)c1.[Br-] | 16 | 16 | 16 | 16 | 16 | 4 | 16 | 8 | 4 | 16 |
| O=C1c2cccc3c(Br)ccc(c23)C(=O)N1CCCCCCn1cc[n+](Cc2ccc(F)cc2F)c1.[Br-] | 32 | 64 | 16 | 32 | 16 | 32 | 32 | 16 | 32 | 32 |
| O=C1c2cccc3c(Br)ccc(c23)C(=O)N1CCCCCCn1cncn1 | > 512 | > 512 | > 512 | > 512 | > 512 | > 512 | > 512 | > 512 | > 512 | > 512 |
| O=C1c2cccc3c(Br)ccc(c23)C(=O)N1CCCCCCn1c[n+](Cc2ccc(F)cc2F)cn1.[Br-] | 64 | 8 | 16 | 16 | 16 | 32 | 32 | 32 | 32 | 32 |
| O=C(N[C@H](CO)[C@H](O)c1ccc([N+](=O)[O-])cc1)C(Cl)Cl [CHLORAMPHENICOL] | – | 16 (≈ 49.5 µM) | 2 (≈ 6.19 µM) | 8 (≈ 24.8 µM) | 4 (≈ 12.4 µM) | 8 (≈ 24.8 µM) | 8 (≈ 24.8 µM) | 4 (≈ 12.4 µM) | 2 (≈ 6.19 µM) | – |
| OC(Cn1cncn1)(Cn1cncn1)c1ccc(F)cc1F [FLUCONAZOLE] | 4 (≈ 13.1 µM) | – | – | – | – | – | – | – | – | 1 (≈ 3.27 µM) |
| C[C@@H]1CN(c2c(F)c(F)c3c(=O)c(C(=O)O)cn(C4CC4)c3c2F)C[C@H](C)N1 [ORBIFLOXACIN] | – | 1 (≈ 2.53 µM) | 2 (≈ 5.06 µM) | 1 (≈ 2.53 µM) | 2 (≈ 5.06 µM) | 1 (≈ 2.53 µM) | 1 (≈ 2.53 µM) | 1 (≈ 2.53 µM) | 4 (≈ 10.1 µM) | – |
